Test results published in patent US20260265238A1, “COMPOUNDS AND PHARMACEUTICAL COMPOSITIONS THAT DEGRADE SWI/SNF-RELATED MATRIX-ASSOCIATED ACTIN-DEPENDENT REGULATOR OF CHROMATIN SUBFAMILY A” (Plexium, Inc., priority 2023, published 2026).

Tests used:
[1] = biological target: T1, SMARCA2-HiBiT HeLa cells (protein which is expressed from the SMARCA2 gene) (Homo sapiens, UniProt P51531); assay: SMARCA2 degradation assay (HiBiT-fusion HeLa cell line, 24 h, luminescence); format: cell-based
T1 construct: protein which is expressed from the SMARCA2 and SMARCA4 genes; host or cells: HeLa (SMARCA2-HiBiT engineered line)
T1 sequence (P51531 whole entry, the tested form may be a part): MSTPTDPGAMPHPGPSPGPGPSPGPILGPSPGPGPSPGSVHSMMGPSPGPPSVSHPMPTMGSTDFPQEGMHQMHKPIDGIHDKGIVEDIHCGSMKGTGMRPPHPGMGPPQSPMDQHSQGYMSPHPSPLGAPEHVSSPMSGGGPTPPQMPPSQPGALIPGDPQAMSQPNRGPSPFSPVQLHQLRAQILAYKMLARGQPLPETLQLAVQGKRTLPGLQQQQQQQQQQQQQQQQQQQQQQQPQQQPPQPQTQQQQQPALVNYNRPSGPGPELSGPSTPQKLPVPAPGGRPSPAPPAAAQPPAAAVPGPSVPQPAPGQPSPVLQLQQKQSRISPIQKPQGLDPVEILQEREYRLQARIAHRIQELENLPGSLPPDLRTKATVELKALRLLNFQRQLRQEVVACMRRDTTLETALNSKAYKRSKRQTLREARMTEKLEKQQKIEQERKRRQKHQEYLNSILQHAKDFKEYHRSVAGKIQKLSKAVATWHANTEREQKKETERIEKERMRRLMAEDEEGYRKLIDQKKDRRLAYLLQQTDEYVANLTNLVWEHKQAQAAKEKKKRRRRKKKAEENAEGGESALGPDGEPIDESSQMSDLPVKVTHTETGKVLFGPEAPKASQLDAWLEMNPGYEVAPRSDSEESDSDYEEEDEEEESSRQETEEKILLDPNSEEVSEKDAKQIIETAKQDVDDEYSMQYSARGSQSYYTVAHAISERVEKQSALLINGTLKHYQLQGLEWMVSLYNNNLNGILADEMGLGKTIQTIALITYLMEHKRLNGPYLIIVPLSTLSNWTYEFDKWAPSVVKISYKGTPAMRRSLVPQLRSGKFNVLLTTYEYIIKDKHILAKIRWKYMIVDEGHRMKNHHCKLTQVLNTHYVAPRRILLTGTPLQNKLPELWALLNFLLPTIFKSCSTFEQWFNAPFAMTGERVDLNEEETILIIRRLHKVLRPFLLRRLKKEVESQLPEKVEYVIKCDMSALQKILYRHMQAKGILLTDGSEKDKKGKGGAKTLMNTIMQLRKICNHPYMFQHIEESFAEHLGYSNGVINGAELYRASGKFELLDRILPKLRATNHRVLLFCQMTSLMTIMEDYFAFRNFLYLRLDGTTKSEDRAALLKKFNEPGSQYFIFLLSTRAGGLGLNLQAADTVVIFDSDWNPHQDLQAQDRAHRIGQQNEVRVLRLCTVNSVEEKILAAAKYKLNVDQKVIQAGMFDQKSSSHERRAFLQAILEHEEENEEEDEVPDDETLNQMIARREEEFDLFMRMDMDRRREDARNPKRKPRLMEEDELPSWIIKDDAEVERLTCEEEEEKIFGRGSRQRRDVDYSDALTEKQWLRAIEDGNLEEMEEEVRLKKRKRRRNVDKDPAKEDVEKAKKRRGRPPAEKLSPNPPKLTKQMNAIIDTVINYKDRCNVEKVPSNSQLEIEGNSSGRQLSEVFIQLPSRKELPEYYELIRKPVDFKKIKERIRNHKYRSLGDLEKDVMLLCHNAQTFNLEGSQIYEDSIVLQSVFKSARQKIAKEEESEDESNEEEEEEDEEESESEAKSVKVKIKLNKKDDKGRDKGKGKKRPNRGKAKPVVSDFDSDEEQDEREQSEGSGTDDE
Description: (§1) SMARCA2 and SMARCA4 Degradation Assay
(§2) Degradation of protein which is expressed from the SMARCA2 and SMARCA4 genes was monitored using engineered HiBiT-fusion HeLa cell lines from Promega. In brief, 384-well white opaque plates (Greiner) were seeded with SMARCA2-HiBiT or SMARCA4-HiBiT HeLa cells at 8,000 cells/well and incubated overnight at 37° C. to allow cell attachment. After overnight incubation, test compounds were added in a 10-point dilution series (typically 10 μM to 300 pM) using a TECAN D300e Digital Dispenser, and plates were subsequently incubated for 24 hours at 37° C. 24-hours post-treatment, protein levels were quantified with the addition of HiBiT lytic buffer, LgBiT protein, and HiBiT substrate, according to manufacturer's specifications. Plates were incubated on an orbital plate shaker for 10 minutes at room temperature. Resulting luminescent values were read out using a ClarioStar plate reader and used to construct dose-response curves and calculation of degradation DC50s (GraphPad Prism).
(§3) Activity of the tested compounds is provided in Table 4 below as follows: A=DC50<0.050 μM; B=0.05 μM<DC50<0.50 μM; C=<0.5 μM<DC50<5.0 μM; D=DC50>5.0 μM. For SMARCA2 and SMARCA4 degradation activity @1 μM, +++=>70%; ++=30-70%; +=<30%.

[2] = biological target: T2, SMARCA4-HiBiT HeLa cells (protein which is expressed from the SMARCA4 gene) (Homo sapiens, UniProt P51532); assay: SMARCA4 degradation assay (HiBiT-fusion HeLa cell line, 24 h, luminescence); format: cell-based
T2 construct: protein which is expressed from the SMARCA2 and SMARCA4 genes; host or cells: HeLa (SMARCA4-HiBiT engineered line)
T2 sequence (P51532 whole entry, the tested form may be a part): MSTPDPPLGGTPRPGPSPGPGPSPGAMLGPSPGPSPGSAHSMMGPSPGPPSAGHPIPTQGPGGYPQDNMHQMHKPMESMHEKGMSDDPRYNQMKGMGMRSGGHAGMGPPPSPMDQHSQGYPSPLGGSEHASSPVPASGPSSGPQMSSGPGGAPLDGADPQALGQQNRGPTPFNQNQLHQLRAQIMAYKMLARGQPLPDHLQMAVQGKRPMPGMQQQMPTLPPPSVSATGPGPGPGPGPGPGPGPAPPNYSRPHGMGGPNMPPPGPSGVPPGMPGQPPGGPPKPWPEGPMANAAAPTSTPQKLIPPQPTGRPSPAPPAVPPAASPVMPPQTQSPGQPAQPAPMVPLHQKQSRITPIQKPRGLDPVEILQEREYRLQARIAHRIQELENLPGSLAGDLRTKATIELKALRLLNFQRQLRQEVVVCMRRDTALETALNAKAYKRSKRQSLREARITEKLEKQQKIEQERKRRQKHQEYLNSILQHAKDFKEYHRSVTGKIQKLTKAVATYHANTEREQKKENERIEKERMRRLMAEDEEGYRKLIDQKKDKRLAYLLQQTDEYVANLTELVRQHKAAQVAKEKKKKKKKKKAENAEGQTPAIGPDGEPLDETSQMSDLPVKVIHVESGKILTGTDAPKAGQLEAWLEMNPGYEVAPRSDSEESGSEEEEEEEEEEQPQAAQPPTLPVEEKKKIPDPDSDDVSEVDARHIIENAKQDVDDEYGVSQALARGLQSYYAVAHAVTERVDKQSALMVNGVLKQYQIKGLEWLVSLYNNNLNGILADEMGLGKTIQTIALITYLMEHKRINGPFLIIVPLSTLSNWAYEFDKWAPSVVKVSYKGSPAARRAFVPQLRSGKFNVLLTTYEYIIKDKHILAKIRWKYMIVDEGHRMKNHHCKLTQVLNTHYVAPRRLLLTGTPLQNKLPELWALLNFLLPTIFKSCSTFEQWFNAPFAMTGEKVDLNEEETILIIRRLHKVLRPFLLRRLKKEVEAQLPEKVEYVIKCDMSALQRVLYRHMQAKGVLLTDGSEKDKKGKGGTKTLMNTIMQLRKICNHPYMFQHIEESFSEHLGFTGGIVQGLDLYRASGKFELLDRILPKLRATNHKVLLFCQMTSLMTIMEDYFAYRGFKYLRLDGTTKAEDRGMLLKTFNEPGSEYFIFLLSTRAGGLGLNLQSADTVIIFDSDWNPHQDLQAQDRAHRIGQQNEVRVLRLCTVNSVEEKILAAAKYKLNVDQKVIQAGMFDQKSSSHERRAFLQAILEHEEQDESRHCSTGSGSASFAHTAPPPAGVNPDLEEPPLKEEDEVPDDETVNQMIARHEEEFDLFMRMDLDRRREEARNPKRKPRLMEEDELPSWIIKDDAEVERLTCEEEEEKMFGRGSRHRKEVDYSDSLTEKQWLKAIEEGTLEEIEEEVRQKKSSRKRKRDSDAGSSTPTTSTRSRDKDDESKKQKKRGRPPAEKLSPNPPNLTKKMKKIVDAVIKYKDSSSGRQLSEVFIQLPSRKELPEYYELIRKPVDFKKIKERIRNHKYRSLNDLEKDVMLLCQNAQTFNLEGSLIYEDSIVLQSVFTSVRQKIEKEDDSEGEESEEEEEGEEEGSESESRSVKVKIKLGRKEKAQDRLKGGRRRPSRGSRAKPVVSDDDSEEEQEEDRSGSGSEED
Description: as §1, §2, §3

Row | DC50 [1] | SMARCA2 % Degradation @ 1 μM ([1]; @ 1 μM) | DC50 [2] | inhibition at 1 µM ([2]; @ 1 μM) | SMARCA2 % Degradation @ 1 μM ([1]; 1 μM) | inhibition at 1 µM ([2]; 1 μM) | SMILES
1 | 0.05 to 0.5 µM | +++ (+++=>70%) | 0.05 to 0.5 µM | > 70% | – | – | C[C@@H]1CCN(c2cc(-c3ccccc3O)nnc2N)CCN1c1ccnc(C#CC2CC(F)(F)C2)n1 [Compound P-269, 0-{5-[(R)-4-{2-[2-(3,3-difluorocyclobutyl)ethynyl]-4-pyrimidinyl}-5-methyl-1,4-diazepan-1-y1]-6-amino-3-pyridazinyl} phenol]
2 | 0.05 to 0.5 µM | – | 0.05 to 0.5 µM | – | +++ (+++=>70%) | > 70% | C[C@@H]1CCN(c2cc(-c3ccccc3O)nnc2N)CCN1c1ccnc(C#CCN2CC3CC2C3)c1 [Compound P-392, 0-{5-[(R)-4-(2-{3-(2-azabicyclo[2.1.1]hex-2-yl)-1-propynyl}-4-pyridyl)-5-methyl-1,4-diazepan-1-yl]-6-amino-3-pyridazinyl}phenol]
3 | < 0.05 µM | – | < 0.05 µM | – | +++ (+++=>70%) | 30 to 70% | C[C@@H]1CCN1CC#Cc1cc(N2CCN(c3cc(-c4ccccc4O)nnc3N)CC[C@H]2C)ccn1 [Compound P-420, 0-{5-[(R)-4-(2-{3-[(R)-2-methyl-1-azetidinyl]-1-propynyl}-4-pyridyl)-5-methyl-1,4-diazepan-1-yl]-6-amino-3-pyridaziny1}phenol]
4 | 0.05 to 0.5 µM | +++ (+++=>70%) | 0.05 to 0.5 µM | 30 to 70% | – | – | Nc1nnc(-c2ccccc2O)cc1N1CCCN(c2ccnc(C#CCN3CCCOCC3)n2)CC1 [Compound P-379, 0-[6-amino-5-(4-{2-[3-(1,4-oxazepan-4-yl)-1-propynyl]-4-pyrimidinyl}-1,4-diazepan-1-yl)-3-pyridazinyl]phenol]
5 | 0.05 to 0.5 µM | +++ (+++=>70%) | 0.05 to 0.5 µM | 30 to 70% | – | – | CC[C@H](C)NCC#Cc1nccc(N2CCCN(c3cc(-c4ccccc4O)nnc3N)CC2)n1 [Compound P-257, o-{5-[4-(2-{3-[(S)-1-methylpropylamino]-1-propynyl}-4-pyrimidinyl)-1,4-diazepan-1-yl]-6-amino-3-pyridazinyl}phenol]

Second part, the molecule before the results:

Row | SMILES | DC50 [1] | SMARCA2 % Degradation @ 1 μM ([1]; @ 1 μM) | DC50 [2] | inhibition at 1 µM ([2]; @ 1 μM) | SMARCA2 % Degradation @ 1 μM ([1]; 1 μM) | inhibition at 1 µM ([2]; 1 μM)
6 | CN(C)CC#Cc1ncc(F)c(N2C3CCC2CN(c2cc(-c4ccccc4O)nnc2N)C3)n1 [Compound P-225, o-[6-amino-5-(8-{2-[3-(dimethylamino)-1-propynyl]-5-fluoro-4-pyrimidinyl}-3,8-diazabicyclo[3.2.1]oct-3-yl)-3-pyridazinyl]phenol] | < 0.05 µM | ++ (++=30-70%) | < 0.05 µM | 30 to 70% | – | –
7 | Nc1nnc(-c2ccccc2O)cc1N1CCC2(CCCN(c3ccnc(C#CCNC(=O)c4cc5ncccn5n4)n3)C2)CC1 [Compound P-35, N-(3-(4-(9-(3-amino-6-(2-hydroxyphenyl)pyridazin-4-yl)-2,9-diazaspiro[5.5]undecan-2-yl)pyrimidin-2-yl)prop-2-yn-1-yl)pyrazolo[1,5-a]pyrimidine-2-carboxamide] | 0.05 to 0.5 µM | ++ (++=30-70%) | 0.05 to 0.5 µM | > 70% | – | –
8 | Nc1nnc(-c2ccccc2O)cc1N1CCCN(c2ccnc(C#CCn3cncn3)n2)CC1 [Compound P-148, 2-(5-(4-(2-(3-(1H-1,2,4-triazol-1-yl)prop-1-yn-1-yl)pyrimidin-4-yl)-1,4-diazepan-1-yl)-6-aminopyridazin-3-yl)phenol] | 0.05 to 0.5 µM | +++ (+++=>70%) | 0.05 to 0.5 µM | 30 to 70% | – | –
9 | C[C@@H]1CCN(c2cc(-c3ccccc3O)nnc2N)CCN1c1ccnc(C#C[C@@H](C)O)n1 [Compound P-198, o-{5-[(R)-4-{2-[(R)-3-hydroxy-1-butynyl]-4-pyrimidinyl}-5-methyl-1,4-diazepan-1-yl]-6-amino-3-pyridazinyl}phenol] | 0.05 to 0.5 µM | +++ (+++=>70%) | 0.5 to 5 µM | 30 to 70% | – | –
10 | CC1(F)CCN(CC#Cc2nccc(N3C4CCC3CN(c3cc(-c5ccccc5O)nnc3N)C4)n2)C1 (stereo not shown) [Compound P-194, o-[6-amino-5-(8-{2-[3-(3-fluoro-3-methyl-1-pyrrolidinyl)-1-propynyl]-4-pyrimidinyl}-3,8-diazabicyclo[3.2.1]oct-3-yl)-3-pyridazinyl]phenol] | < 0.05 µM | ++ (++=30-70%) | < 0.05 µM | 30 to 70% | – | –
11 | Nc1nnc(-c2ccccc2O)cc1N1CCCN(c2ccnc(C#CCNc3cc4ncccn4n3)n2)CC1 [Compound P-120, 2-(6-amino-5-(4-(2-(3-(pyrazolo[1,5-a]pyrimidin-2-ylamino)prop-1-yn-1-yl)pyrimidin-4-yl)-1,4-diazepan-1-yl)pyridazin-3-yl)phenol] | 0.5 to 5 µM | ++ (++=30-70%) | 0.5 to 5 µM | 30 to 70% | – | –
12 | Nc1nnc(-c2ccccc2O)cc1N1CCC2C1CCCN2c1ccnc(C#CCNC(=O)c2cc3ncccn3n2)n1 (stereo not shown) [Compound P-38, N-(3-(4-(1-(3-amino-6-(2-hydroxyphenyl)pyridazin-4-yl)octahydro-4H-pyrrolo[3,2-b]pyridin-4-yl)pyrimidin-2-yl)prop-2-yn-1-yl)pyrazolo[1,5-a]pyrimidine-2-carboxamide] | 0.5 to 5 µM | + (+=<30%) | 0.5 to 5 µM | < 30% | – | –
13 | C[C@H]1CCN(c2cc(-c3ccccc3O)nnc2N)CCN1c1ccnc(C#CCNC(=O)c2cc3ncccn3n2)n1 [Compound P-102, (S)-N-(3-(4-(4-(3-amino-6-(2-hydroxyphenyl)pyridazin-4-yl)-7-methyl-1,4-diazepan-1-yl)pyrimidin-2-yl)prop-2-yn-1-yl)pyrazolo[1,5-a]pyrimidine-2-carboxamide] | 0.05 to 0.5 µM | +++ (+++=>70%) | < 0.05 µM | > 70% | – | –
14 | Nc1nnc(-c2ccccc2O)cc1N1CCN(c2ccnc(C#CCNC(=O)c3cc4n(n3)CCCC4)n2)CC1 [Compound P-69, N-(3-(4-(4-(3-amino-6-(2-hydroxyphenyl)pyridazin-4-yl)piperazin-1-yl)pyrimidin-2-yl)prop-2-yn-1-yl)-4,5,6,7-tetrahydropyrazolo[1,5-a]pyridine-2-carboxamide] | 0.05 to 0.5 µM | ++ (++=30-70%) | < 0.05 µM | 30 to 70% | – | –
15 | Nc1nnc(-c2ccccc2O)cc1N1CCCN(c2ccnc(C#CCCNC(=O)c3cc4ncccn4n3)n2)CC1 [Compound P-23, N-(4-(4-(4-(3-amino-6-(2-hydroxyphenyl)pyridazin-4-yl)-1,4-diazepan-1-yl)pyrimidin-2-yl)but-3-yn-1-yl)pyrazolo[1,5-a]pyrimidine-2-carboxamide] | 0.05 to 0.5 µM | ++ (++=30-70%) | 0.05 to 0.5 µM | 30 to 70% | – | –
16 | NCC#Cc1nccc(N2CCC3(CC2)CCN(c2cc(-c4ccccc4O)nnc2N)CC3)n1 [Compound P-90, 2-(6-amino-5-(9-(2-(3-aminoprop-1-yn-1-yl)pyrimidin-4-yl)-3,9-diazaspiro[5.5]undecan-3-yl)pyridazin-3-yl)phenol] | 0.5 to 5 µM | + (+=<30%) | 0.5 to 5 µM | < 30% | – | –
